Strand notation (5' to 3'): a small letter for the sugar, then the base; units joined by * are phosphorothioate-linked, units joined directly phosphodiester-linked; [ ] holds rarer units or linkages, { } end groups; capitals alone tell only the bases. e = 2'-O-(2-methoxyethyl) (MOE); [5mC] = 5-methylcytosine; d = 2'-deoxy (DNA)

For one data set, the system named is human Factor 11 mRNA. The data set is described as follows: Antisense inhibition of human Factor 11 in HepG2 cells, lipofectin, 75 nM (Example 1). It is filed as cell-based. Conditions: 75 nM antisense oligonucleotide, ~24 h, relative to untreated control cells, gapmers targeted to SEQ ID NO: 1. How it is done:
Antisense oligonucleotides targeted to a Factor 11 nucleic acid were tested for their effects on Factor 11 mRNA in vitro. Cultured HepG2 cells at a density of 10,000 cells per well were transfected using lipofectin reagent with 75 nM antisense oligonucleotide. After a treatment period of approximately 24 hours, RNA was isolated from the cells and Factor 11 mRNA levels were measured by quantitative real time PCR. Factor 11 mRNA levels were adjusted according to total RNA content, as measured by RIBOGREEN. Results are presented as percent inhibition of Factor 11, relative to untreated control cells.
The chimeric antisense oligonucleotides in Tables 1 and 2 were designed as 5-10-5 MOE gapmers. The gapmers are 20 nucleotides in length, wherein the central gap segment is comprised of 10 2′-deoxynucleotides and is flanked on both sides (in the 5′ and 3′ directions) by wings comprising 5 nucleotides each. Each nucleotide in the 5′ wing segment and each nucleotide in the 3′ wing segment has a 2′-MOE modification. The internucleoside linkages throughout each gapmer are phosphorothioate (P=S) linkages. All cytidine residues throughout each gapmer are 5-methylcytidines. “Target start site” indicates the 5′-most nucleotide to which the gapmer is targeted. “Target stop site” indicates the 3′-most nucleotide to which the gapmer is targeted. Each gapmer listed in Table 1 is targeted to SEQ TD NO: 1 (GENBANK Accession No. NM_000128.3) and each gapmer listed in Table 2 is targeted to SEQ TD NO: 2 (GENBANK Accession No. NT_022792.17, truncated from 19598000 to 19624000).
For “412235 (antisense eA*eT*eA*eT*e[5mC]*d[5mC]*dA*d[5mC]*dT*dG*dG*dT*dT*dT*d[5mC]*e[5mC]*eA*eA*eT*eG) [compound 412235]”, the % inhibition (in general, the change of the read-out against control, counted positive when it falls) amounted to 57%.
Same read-out and setting: the value for “413464 (antisense eG*eT*eG*eA*eG*d[5mC]*dA*dT*dT*dG*d[5mC]*dT*dT*dG*dA*eA*eA*eG*eA*eA) [compound 413464]” was 42%; that for “412196 (antisense eT*eG*eA*eT*eA*dT*dA*dA*dG*dA*dA*dA*dA*dT*d[5mC]*eA*eT*e[5mC]*e[5mC]*eT) [compound 412196]” was 25%.
On to “412220 (antisense eT*eG*eG*eT*eA*dA*dA*dA*dT*dG*dA*dA*dG*dA*dA*eT*eG*eG*e[5mC]*eA) [compound 412220]”, for which the “% inhibition” value is recorded as 58%.
The same measure, in the same setting: to “412248 (antisense e[5mC]*e[5mC]*eA*eG*eA*dT*dG*d[5mC]*d[5mC]*dA*dG*dA*d[5mC]*d[5mC]*dT*e[5mC]*eA*eT*eT*eG) [compound 412248]” belongs 53%; to “412234 (antisense eG*eT*eT*eT*e[5mC]*d[5mC]*dA*dA*dT*dG*dA*dT*dG*dG*dA*eG*e[5mC]*e[5mC]*eT*e[5mC]) [compound 412234]”, 60%; to “412257 (antisense e[5mC]*eT*eG*e[5mC]*eA*dA*dA*dA*dT*dG*dG*dT*dG*dA*dA*eG*eA*e[5mC]*eT*eG) [compound 412257]”, 57%.
Same read-out and setting: to “412255 (antisense eG*e[5mC]*e[5mC]*eA*e[5mC]*dT*dA*d[5mC]*dT*dT*dG*dG*dT*dT*dA*eT*eT*eT*eT*e[5mC]) [compound 412255]” belongs 38%; to “413473 (antisense eA*eG*e[5mC]*e[5mC]*eA*dG*dA*dT*dT*dA*dG*dA*dA*dA*dG*eT*eG*e[5mC]*eA*e[5mC]) [compound 413473]”, 80%; to “413465 (antisense e[5mC]*eT*eT*eA*eT*dT*dT*dG*dG*dT*dG*dT*dG*dA*dG*e[5mC]*eA*eT*eT*eG) [compound 413465]”, 80%.
The same measure, in the same setting: to “413472 (antisense eT*eG*eG*eG*eT*dG*dT*dG*d[5mC]*dT*dT*d[5mC]*dA*dG*dT*eA*eG*eA*e[5mC]*eA) [compound 413472]” belongs 99%; to “412258 (antisense eG*eT*eG*eT*eA*dG*dA*dT*dT*d[5mC]*d[5mC]*dT*dG*d[5mC]*dA*eA*eA*eA*eT*eG) [compound 412258]”, 44%.
For “413463 (antisense eG*eA*eG*eT*e[5mC]*dA*d[5mC]*dA*d[5mC]*dA*dT*dT*d[5mC]*dA*d[5mC]*e[5mC]*eA*eG*eA*eA) [compound 413463]”, the “% inhibition” value is recorded as 74%.
Still for that read-out and setting: the value for “413461 (antisense eG*eT*e[5mC]*eA*eG*dA*dA*dA*dT*dA*dT*dA*d[5mC]*d[5mC]*dT*eT*eG*eA*eG*eA) [compound 413461]” was 39%; that for “413490 (antisense e[5mC]*eT*eA*e[5mC]*e[5mC]*d[5mC]*d[5mC]*dA*dT*dA*dG*dA*dA*dA*d[5mC]*eA*eG*eT*eG*eA) [compound 413490]” was 57%; that for “413488 (antisense eA*e[5mC]*eA*eG*eG*dT*dG*dT*d[5mC]*dT*d[5mC]*dT*dG*dA*dG*eT*eG*eG*eG*eT) [compound 413488]” was 49%.
The same measure, in the same setting: the value for “413498 (antisense eG*e[5mC]*eA*eG*eA*dG*dT*dG*dT*dA*dG*dA*dT*dT*d[5mC]*e[5mC]*eT*eG*e[5mC]*eA) [compound 413498]” was 60%; that for “412236 (antisense e[5mC]*e[5mC]*eA*eT*eA*dG*dA*dA*dA*d[5mC]*dA*dG*dT*dG*dA*eG*e[5mC]*eG*eG*e[5mC]) [compound 412236]” was 72%.
On the same count and under the same terms, to “412211 (antisense eG*eA*eT*eT*eA*dG*dA*dA*dA*dG*dT*dG*d[5mC]*dA*d[5mC]*eA*eG*eG*eA*eT) [compound 412211]” belongs 64%.
For “412222 (antisense eA*eA*e[5mC]*eA*eA*dT*dA*dT*d[5mC]*d[5mC]*dA*dG*dT*dT*d[5mC]*eT*eT*e[5mC]*eT*e[5mC]) [compound 412222]”, the “% inhibition” value turned out to be 5%.
The same measure, in the same setting: to “412200 (antisense eA*eA*eG*eA*eA*dT*dA*d[5mC]*d[5mC]*d[5mC]*dA*dG*dA*dA*dA*eT*e[5mC]*eG*e[5mC]*eT) [compound 412200]” belongs 59%; to “412217 (antisense eA*eA*eT*e[5mC]*e[5mC]*dA*d[5mC]*dT*d[5mC]*dT*d[5mC]*dA*dG*dA*dT*eG*eT*eT*eT*eT) [compound 412217]”, 47%; to “413499 (antisense eA*eT*e[5mC]*eA*eT*dT*dT*dT*dT*d[5mC]*dA*dG*dG*dA*dA*eA*eG*eT*eG*eT) [compound 413499]”, 52%.
For the substance “412197 (antisense eA*e[5mC]*eA*e[5mC]*eA*dT*dT*d[5mC]*dA*d[5mC]*d[5mC]*dA*dG*dA*dA*eA*e[5mC]*eT*eG*eA) [compound 412197]”, the “% inhibition” value stood at 45%.

Still in this data set, the particulars now being: 75 nM antisense oligonucleotide, ~24 h, relative to untreated control cells, gapmers targeted to SEQ ID NO: 2.
Regarding “413528 (antisense eT*eT*eA*eA*eG*dT*dT*dA*d[5mC]*dA*dT*dT*dG*dT*dA*eG*eA*e[5mC]*e[5mC]*eA) [compound 413528]”, the “% inhibition” value came out at 48%.
Still for that read-out and setting: the value for “413537 (antisense eA*eG*eA*eA*eA*dT*dA*dT*d[5mC]*d[5mC]*d[5mC]*d[5mC]*dA*dG*dA*e[5mC]*eA*eG*eA*eG) [compound 413537]” was 16%; that for “413526 (antisense eG*eT*eA*eA*eA*dG*dT*dT*dT*dT*dA*d[5mC]*d[5mC]*dT*dT*eA*eA*e[5mC]*e[5mC]*eT) [compound 413526]” was 47%; that for “413516 (antisense e[5mC]*e[5mC]*eA*eG*e[5mC]*dT*dA*dT*d[5mC]*dA*dG*dG*dA*dA*dA*eA*eT*eT*e[5mC]*e[5mC]) [compound 413516]” was 50%.
Still for that read-out and setting: the value for “413508 (antisense eG*eT*eT*eG*eG*dT*dA*dA*dA*dA*dT*dG*d[5mC]*dA*dA*e[5mC]*e[5mC]*eA*eA*eA) [compound 413508]” was 64%; that for “413521 (antisense e[5mC]*eT*eG*eG*eG*dA*dA*dG*dG*dT*dG*dA*dA*dT*dT*eT*eT*eT*eA*eG) [compound 413521]” was 62%; that for “413533 (antisense eA*eT*e[5mC]*e[5mC]*eA*dG*dT*dT*d[5mC]*dA*d[5mC]*d[5mC]*dA*dT*dT*eG*eG*eA*eG*eA) [compound 413533]” was 48%.
Still for that read-out and setting: to “413507 (antisense eT*eT*eT*e[5mC]*eA*dA*dG*d[5mC]*dT*d[5mC]*dA*dG*dG*dA*dT*eG*eG*eG*eA*eA) [compound 413507]” belongs 55%; to “413534 (antisense eT*eT*eT*eT*e[5mC]*d[5mC]*dA*dG*dA*dA*dG*dA*dG*dA*d[5mC]*eT*e[5mC]*eT*eT*e[5mC]) [compound 413534]”, 31%.
For the substance “413502 (antisense e[5mC]*eT*eG*e[5mC]*eT*dT*dT*dA*dT*dG*dA*dA*dA*dA*dA*e[5mC]*e[5mC]*eA*eA*e[5mC]) [compound 413502]”, the “% inhibition” value amounted to 22%.

(Values after US20230263822A1, “MODULATION OF FACTOR 11 EXPRESSION” (Ionis Pharmaceuticals, Inc., priority 2008, published 2023).)
